Measurements reported in patent publication US20060153936A1, “Flavonoid solubilizing agent and method of solubilizing flavonoid” (priority 2003, published 2006).
Like-named read-outs stand apart in the source and are kept apart here.

Columns and labels:
[1] = Baicalin dissolution amount with solubilizing agent (Example 1); assay type: physicochemical; conditions: without additive; baicalin 100 mg in ultrapure water 10 mL; 80° C. one hour, equilibrated 10° C. 48 hours
Protocol: Then, after the mixture was equilibrated at 10° C. for 48 hours, the supernatant was collected by centrifugation. The OD254 of the supernatant was measured and the dissolution amount of baicalin was calculated by the following equation 1. baicalin dissolution amount (mg/100 mL)=(OD254 in sample supernatant−OD254 in control supernatant)/baicalin specific absorbance×1000

[2] = Storage stability of baicalin supernatant at 10° C., visual examination (Example 1); assay type: physicochemical; conditions: baicalin supernatant without additive, 95° C. 15 minutes, stored 10° C. one month
Protocol: Further, the supernatant was placed in a test tube and, after it was pasteurized by heating at 95° C. for 15 minutes, it was stored at 10° C. for one month to observe the formation of a precipitate by visual examination.

[3] = Storage stability of hesperidin supernatant at 10° C., visual examination (Example 3); assay type: physicochemical; conditions: hesperidin supernatant without additive, 95° C. 15 minutes, stored 10° C. one month
Protocol: (§1) Further, the supernatant was placed in a test tube, and after it was pasteurized by heating at 95° C. for 15 minutes, it was stored at 10° C. for one month to observe the formation of a precipitate by visual examination.

[4] = Hesperidin dissolution amount with solubilizing agent (Example 3); assay type: physicochemical; conditions: without additive; hesperidin 100 mg in ultrapure water 10 mL; 80° C. one hour, equilibrated 10° C. 48 hours
Protocol: Then, after it was equilibrated at 10° C. for 48 hours, the supernatant was collected by centrifugation. The OD254 of the supernatant was measured and a hesperidin dissolution amount was calculated by the following equation 3. hesperidin dissolution amount (mg/100 mL)=(OD254 in sample supernatant−OD254 in control supernatant)/hesperidin specific absorbance×1000

[5] = Isoflavone dissolution amount by HPLC with malonyl daidzin (Example 6); assay type: physicochemical; conditions: for dissolution amount of malonyl daidzin itself: share of malonyl daidzin in the isoflavone amount of the supernatant, 10° C.
Protocol: (§2) Ultrapure water 1 mL was added to a commercially available soybean isoflavone (trade name “Honen Isoflavone-80”, manufactured by Honen Corporation) 12.5 mg (10 mg of isoflavone glycoside) and a commercially available malonyl isoflavone glycoside, malonyl daidzin (purity: 90% or more, manufactured by Wako Pure Chemicals, Co., Ltd.) 1 mg, and the mixture was stirred at 25° C. for one hour. Then, after it was equilibrated at 10° C. for 48 hours, the supernatant was collected by centrifugation and an isoflavone dissolution amount was measured by HPLC. Further, the supernatant was placed in a test tube, it was stored as such at 10° C. for one month to observe the formation of a precipitate by visual examination.

[6] = assay type: physicochemical
Protocol: as §2

[7] = Storage stability of naringin supernatant at 10° C., visual examination (Example 4); assay type: physicochemical; conditions: naringin supernatant without additive, 95° C. 15 minutes, stored 10° C. one month
Protocol: as §1

[8] = Naringin dissolution amount with solubilizing agent (Example 4); assay type: physicochemical; conditions: without additive; naringin 100 mg in ultrapure water 10 mL; 80° C. one hour, equilibrated 10° C. 48 hours
Protocol: Ultrapure water 10 mL was added to commercially available naringin (flavanones, purity: 95% or more, manufactured by Sigma Inc.) 100 mg and the same solubilizing agent as that used in Example 1, and the mixture was stirred at 80° C. for one hour. Then, after it was equilibrated at 10° C. for 48 hours, the supernatant was collected by centrifugation. The OD254 in the supernatant was measured and a naringin dissolution amount was calculated by the following equation 4. naringin dissolution amount (mg/100 mL)=(OD254 in sample supernatant−OD254 in control supernatant)/naringin specific absorbance×1000

[9] = Storage stability of rutin supernatant at 10° C., visual examination (Example 2); assay type: physicochemical; conditions: rutin supernatant without additive, 95° C. 15 minutes, stored 10° C. one month
Protocol: Further, the supernatant was placed in a test tube, after it was pasteurized by heating at 95° C. for 15 minutes, it was stored at 10° C. for one month to observe the formation of a precipitate by visual examination.

## O=C(O)[C@H]1O[C@@H](Oc2cc3oc(-c4ccccc4)cc(=O)c3c(O)c2O)[C@H](O)[C@@H](O)[C@@H]1O [Baicalin, baicalin]
[1]
  Baicalin dissolution amount: 12.4 mg/100 mL
[2]
  Storage stability (10° C.): precipitate

## COc1ccc([C@@H]2CC(=O)c3c(O)cc(O[C@@H]4O[C@H](CO[C@@H]5O[C@@H](C)[C@H](O)[C@@H](O)[C@H]5O)[C@@H](O)[C@H](O)[C@H]4O)cc3O2)cc1O [Hesperidin, hesperidin]
[3]
  Storage stability (10° C.): precipitate
[4]
  Hesperidin dissolution amount: 8.6 mg/100 mL

## O=C(O)CC(=O)OC[C@H]1O[C@@H](Oc2ccc3c(=O)c(-c4ccc(O)cc4)coc3c2)[C@H](O)[C@@H](O)[C@@H]1O [Malonyl daidzin, malonyl daidzin]
[5]; Honen Isoflavone-80 12.5 mg + malonyl daidzin 1 mg in ultrapure water 1 mL, 25° C. one hour, equilibrated 10° C. 48 hours, HPLC, total including malonyl daidzin
  Isoflavone amount: 106.3 mg/100 mL
[5]; in the co-presence of malonyl daidzin, malonyl daidzin's own amount deducted
  solubilizing magnifying power of the isoflavone glycoside: 2.9 fold
[5]; HPLC
  dissolution amount of malonyl daidzin itself: (including 56.9 of mg/100 mL
[5]; HPLC, listed as malonyl daidzin
  dissolution amount of malonyl daidzin itself: 56.9 mg/100 mL
[6]
  Storage stability (10° C.): No precipitate

## C[C@@H]1O[C@@H](O[C@H]2[C@H](Oc3cc(O)c4c(c3)O[C@H](c3ccc(O)cc3)CC4=O)O[C@H](CO)[C@@H](O)[C@@H]2O)[C@H](O)[C@H](O)[C@H]1O [Naringin, naringin]
[7]
  Storage stability (10° C.): precipitate
[8]
  Naringin dissolution amount: 68.0 mg/100 mL

## C[C@@H]1O[C@@H](OC[C@H]2O[C@@H](Oc3c(-c4ccc(O)c(O)c4)oc4cc(O)cc(O)c4c3=O)[C@H](O)[C@@H](O)[C@@H]2O)[C@H](O)[C@H](O)[C@H]1O [Rutin, rutin]
[9]
  Storage stability (10° C.): precipitate
